| melting point | Compound |
| --- | --- |
| 125 to 127 °C | CS(=O)(=O)c1ccc(Oc2ccccc2CC(=O)O)cc1 |
| > 60 °C | CCCCN(Cc1ccc(-c2ccccc2S(=O)(=O)NC(=O)c2ccccc2Cl)cc1)C(=O)N(C)c1ccccc1C(F)(F)F |
| 125 to 140 °C | NC1=NC(c2cccc(-c3cccnc3F)c2)(c2ccc3c(c2)OCCO3)C2=NCCCN12 (stereo not given) |
| 130 to 133 °C | CC(Cc1c[nH]c2ccccc12)(NC(=O)OC(C)(C)C(Cl)(Cl)Cl)C(=O)NCCc1ccccn1 (stereo not given) |
| 239 to 240 °C | COC(=O)c1ccc2cc(-c3ccc(C(=O)O)c(C45CC6CC(CC(C6)C4)C5)c3)ccc2c1 |
| 188 to 189 °C | COc1ccc(OC)c(Cc2nc3ccc(C)cc3c(=O)[nH]2)c1 |
| 58 to 60 °C | CC(C)n1c(=O)nc(-c2cccnc2)c2cc3c(cc21)OCO3 |
| 78 to 87 °C | COc1cc(C2CCN(C(=O)CN(C)C)CC2)ccc1Nc1ncc2ccc(-c3ccccc3OC)n2n1 |
| 209 to 211 °C | COc1cc2c(Nc3ccc(Cl)cc3F)ncnc2cc1OCCn1ccccc1=O |
| 232 to 233 °C | CCOc1ccc(Nc2n[nH]c3ncnc(Nc4cccc(Cl)c4)c23)cc1 |
| 112 to 115 °C | COc1ccc(S(=O)(=O)N2c3cc(F)ccc3-c3ccc(F)cc3C2C)c(OC)c1 (stereo not given) |
| 158 to 160 °C | C=CC[C@H]1C(=O)N(S(=O)(=O)c2ccc3ccccc3c2)[C@H]2CCN(C(=O)OCc3ccccc3)[C@H]12 (relative stereo) |
| 76 to 80 °C | CCOc1ccc(CC2NCCc3cc(OC(C)C)c(OC(C)C)cc32)cc1OCC (stereo not given) |
| 192 to 194 °C | O=C(Nc1ccc2cc(CN3CCCC3)cnc2c1)c1ccc(-c2ccccc2)cc1 |
| 178 to 179 °C | Oc1c(-c2ccc(F)cc2)nn2ccccc12 |
| 196 to 210 °C | O=C(O)Cc1ccc(-c2ccc(-c3ccccc3)cc2)o1 |
| 128 to 130 °C | O=C(O)Cn1cc(Cc2nc3c(F)c(F)cc(F)c3s2)c2cc(Oc3ccccc3)ccc21 |
| 142 to 144 °C | C#CCc1c(-c2ccccc2)nc(C)n(C)c1=O |
| 125 to 126 °C | CC(C)Cc1nn(-c2ccccc2)c(CC(C)C)c1CC(=O)O |
| 136 to 138 °C | CSc1nc(NCc2ccc(-c3ccccn3)cc2)n2ncc(C(C)C)c2n1 |
| 175 to 177 °C | CC(C)(C)OC(=O)N1CCN(c2nccc(Oc3ccc(NC(=O)c4cc(F)cc(N5CCCCC5)c4)c4ccccc34)n2)CC1 |
| 113 to 115 °C | CC(C)Oc1cc(CCCOc2nn(Cc3ccccc3)cc2CC(=O)O)n(Cc2ccc(Cl)cc2OC(C)C)n1 |
| 143 to 146 °C | O=C(O)c1c(O)cccc1-c1ccccc1 |
| 154 to 155 °C | CC1(O)c2ccccc2-c2[nH]nc(-c3ccccc3)c21 (stereo not given) |
| 193 to 197 °C | CS(=O)(=O)Nc1ccc(Cn2c(=O)n(Cc3ccc(C(F)(F)F)cc3)c3ccccc32)cc1 |
| 257 to 259 °C | O=C1OC2(CCN(C(=O)Nc3cnc(-c4cccc(O)c4)cn3)CC2)c2ccccc21 |
| 88 to 90 °C | CC(Nc1nc(-c2ccccc2)cs1)c1ccc(CO)cc1 (stereo not given) |
| 184 to 186 °C | COc1ccc(CNc2nc(Cl)ccc2C(=O)O)cc1Cl |
| 138 to 140 °C | COc1ccc(COc2cccnc2NC(=S)Nc2ccc(Cl)cc2)c(F)c1 |
| 208 °C | CCCN(CC)C(=O)c1ccc(CN2C(=O)C(c3ccccc3Cl)(N(C)C)c3cc(Cl)ccc32)cc1 (stereo not given) |

Further lines, the molecule ahead of its results:

| Compound | melting point |
| --- | --- |
| COC(=O)c1ccc2[nH]c(S)nc2n1 | 233 to 234 °C |
| FC(F)(F)c1nncn1-c1ccccc1 | 80 °C |
| CN1C(=O)Cc2ccccc2C1=O | 113 to 115 °C |
| Cc1cc2c(cc1N)OCO2 | 88 to 89 °C |
| CCCC(=O)c1cc2nc(C(=O)OCC)n(C)c2cc1C | 106 to 108 °C |
| N#CC1CN1C(=O)c1ccc(Cl)cc1Cl (stereo not given) | 95 to 97 °C |
| O=C(C[C@H](NC(=O)C(F)(F)F)C(=O)O)c1ccc(F)cc1F | 82.4 to 84 °C |
| CCN1CCC(c2cc3ccc(C)cc3c(=O)[nH]2)CC1 | 239 to 241 °C |
| CN1Cc2cscc2Nc2ccccc21 | 110 to 112 °C |
| CCOC(=O)C1=C(COCCNc2noc(N)n2)NC(C)=C(C(=O)OC)C1c1ccccc1Cl (stereo not given) | 135 °C |
| C=CCn1c(=O)[nH]c2ccccc2c1=N | 223 to 224 °C |
| COc1ccc(Cl)cc1-c1[nH]c2cccc3c2c1CCNC3=O | 160 to 162 °C |
| CCOC(=O)C(NC(C)=O)(C(=O)OCC)C1=Nc2ccc(Br)cc2C(c2ccccn2)=NC1 | 178 to 180 °C |
| CN(C)c1nc(-c2ccc(Cl)cc2)c(CCC(=O)O)o1 | 189 to 190 °C |
| CSc1ccc(C(=O)N2CC2C#N)nn1 (stereo not given) | 97 to 100 °C |
| CCOC(=O)CCCC1(CCCC(=O)OCC)CC(=O)c2ccc(O)cc2O1 | 108 to 110 °C |
| CCCCCCCCCCCCCCCCOCCC(O)CO (stereo not given) | 60 to 61 °C |
| CC(=O)N1CCC(=O)C(C(c2ccc(F)cc2)c2ccc(F)cc2)C1 (stereo not given) | 146 to 147 °C |
| O=P1(c2cccc(C(F)(F)F)c2)OCc2ccccc21 (stereo not given) | 102 to 106 °C |
| CCc1nc(Cl)c([N+](=O)[O-])c(NC2CC2)n1 | 61 to 62 °C |

| Compound | melting point |
| --- | --- |
| CC(C)C(=O)CC(=O)c1ccc(C(=O)CC(=O)C(C)C)cc1 | 97 to 97.5 °C |
| CC(=O)Nc1nc2c(s1)-c1nc(N3CCCC3=O)ncc1CC2 | > 160 °C |
| CCOCOc1cccc(C(CC#N)N2Cc3c(Cl)ccc(NC(=O)C4CC4)c3C2=O)c1 (stereo not given) | 200 to 202 °C |
| CCc1ccc(C(=O)O)c([N+](=O)[O-])c1 | 111 °C |
| O=c1c2c(O)cc(OCC3CS3)cc2oc2ccc3ccccc3c12 (stereo not given) | 167 to 168 °C |
| O=C(O)CNC(=O)NC(=O)C(CC1CCCC1)c1ccc(Cl)c(Cl)c1 (stereo not given) | 204 to 207 °C |
| COC(CC1=C(C#N)C(c2cccc3nonc23)c2c[nH]nc2N1)OC (stereo not given) | 115 °C |
| COc1ccc(CS(=O)CC(=O)NO)cc1 (stereo not given) | 160 °C |
| COC(=O)CCn1c(C(=O)O)c(C)c2cc(C)ccc21 | 169 °C |
| Cc1ccc(C(=O)N(C(C)C)C(C)C)c(C(=O)O)c1F | 147 to 149 °C |
| COC(=O)c1c2c(c3cc4c(cc3c1-c1ccc(OC)c(OC)c1)OCO4)OCOC2=O | 168 to 170 °C |
| COc1cc2c(cc1OC)C(COCCN1CCN(c3ccc(F)cc3)CC1)OCCC2 (stereo not given) | 114 °C |
| O=c1c2cc(O)ccc2nc(CSc2ncnc3[nH]cnc23)n1-c1ccccc1Cl | 186 to 214 °C |
| COC(=O)Cc1cc(=O)[nH]c2ccccc12 | 209 to 210 °C |
| CON(C)C(=O)c1nc(C(C)(C)C)c(O)c(C(C)(C)C)n1 | 137 to 138 °C |
| COC(=O)/C(=C/c1cccc(C=O)c1)NC(=O)OCc1ccccc1 | 77 to 83 °C |
| CCn1cc(C(=O)OC)c(=O)c2cc(F)c(N3CCNCC3)cc21 | 179 to 181 °C |
| COc1ccc(-c2nc3cnncc3[nH]2)c(N(C)C)c1 | 226 °C |
| CCN1CCN(CC(=O)NC2(c3cc4ccccc4o3)C(=O)Nc3cc(Cl)cc(Cl)c32)CC1 (single isomer, unassigned; (+)) | 192 to 196 °C |
| Cc1ccc(NCC2CCN(C3CCOCC3)CC2)c(C(=O)Nc2ccc(Cl)cn2)c1 | 178 to 182 °C |

Source: a melting point compilation (Tetko et al.; mined from patent text by program, amines drawn as free bases though some values may be those of a salt)
